Laboratory results taken from ChEMBL document CHEMBL5380843 (J Med Chem, 2023).

How the values were obtained:
[1] = Selectivity index, ratio of CC50 for cytotoxicity against human MT4 cells to EC50 for antiviral activity against wild type HIV-1 IIIB infected in human MT4 cells; type: toxicity, cell-based; conditions: read-out: Ratio CC50/EC50
[2] = Cytotoxicity against human MT4 cells assessed as reduction in cell viability incubated for 5 days by MTT assay; type: toxicity, cell-based; conditions: time 5 day
[3] = Resistant factor, ratio of EC50 for antiviral activity against HIV-1 IIIB harboring reverse transcriptase K103N mutant to EC50 for antiviral activity against wild type HIV-1 IIIB; type: functional
[4] = tested on: Human immunodeficiency virus 1; experiment: Antiviral activity against wild type HIV-1 IIIB harboring reverse transcriptase E138K mutant infected in human MT4 cells assessed as protection against virus-induced cytopathic effect incubated for 5 days by MTT assay; type: functional, organism-based; conditions: Human immunodeficiency virus 1, IIIB, MT4, 120 h
[5] = Resistant factor, ratio of EC50 for antiviral activity against HIV-1 IIIB harboring reverse transcriptase […] mutant to EC50 for antiviral activity against wild type HIV-1 IIIB; type: functional
[6] = tested on: Human immunodeficiency virus 1; experiment: Antiviral activity against wild type HIV-1 IIIB infected in human MT4 cells assessed as protection against virus-induced cytopathic effect incubated for 5 days by MTT assay; type: functional, organism-based; conditions: Human immunodeficiency virus 1, IIIB, MT4, 120 h
[7] = Resistant factor, ratio of EC50 for antiviral activity against HIV-1 IIIB harboring reverse transcriptase E138K mutant to EC50 for antiviral activity against wild type HIV-1 IIIB; type: functional
[8] = tested on: Human immunodeficiency virus 1; experiment: Antiviral activity against wild type HIV-1 IIIB harboring reverse transcriptase Y181C mutant infected in human MT4 cells assessed as protection against virus-induced cytopathic effect incubated for 5 days by MTT assay; type: functional, organism-based; conditions: Human immunodeficiency virus 1, IIIB, MT4, 120 h
[9] = tested on: Human immunodeficiency virus 1; experiment: Antiviral activity against wild type HIV-1 IIIB harboring reverse transcriptase Y188L mutant infected in human MT4 cells assessed as protection against virus-induced cytopathic effect incubated for 5 days by MTT assay; type: functional, organism-based; conditions: Human immunodeficiency virus 1, IIIB, MT4, 120 h
[10] = Resistant factor, ratio of EC50 for antiviral activity against HIV-1 IIIB harboring reverse transcriptase Y188L mutant to EC50 for antiviral activity against wild type HIV-1 IIIB; type: functional
[11] = tested on: Human immunodeficiency virus 1; experiment: Antiviral activity against wild type HIV-1 IIIB harboring reverse transcriptase K103N mutant infected in human MT4 cells assessed as protection against virus-induced cytopathic effect incubated for 5 days by MTT assay; type: functional, organism-based; conditions: Human immunodeficiency virus 1, IIIB, MT4, 120 h
[12] = tested on: Human immunodeficiency virus 1; experiment: Antiviral activity against wild type HIV-1 IIIB harboring reverse transcriptase […] mutant infected in human MT4 cells assessed as protection against virus-induced cytopathic effect incubated for 5 days by MTT assay; type: functional, organism-based; conditions: Human immunodeficiency virus 1, IIIB, MT4, 120 h
[13] = biological target: Human immunodeficiency virus type 1 reverse transcriptase (Human immunodeficiency virus 1, UniProt Q72547); experiment: Inhibition of recombinant wild type HIV-1 reverse transcriptase using DNA/RNA as substrate incubated for 40 mins by Pico-green dye based spectrofluorometric analysis
[14] = Resistant factor, ratio of EC50 for antiviral activity against HIV-1 IIIB harboring reverse transcriptase Y181C mutant to EC50 for antiviral activity against wild type HIV-1 IIIB; type: functional

Row | SMILES | selectivity ratio [1] | CC50 at 120 h [2] | Ratio EC50 [3] | EC50 [4] | Ratio EC50 [5] | EC50 [6] | Ratio EC50 [7] | EC50 [8] | EC50 [9] | Ratio EC50 [10] | EC50 [11] | EC50 [12] | IC50 [13] | Ratio EC50 [14]
1 | N#Cc1ccc(Nc2nccc(Oc3ccc4cc(C#N)ccc4c3Br)n2)cc1 | 181000 | 283000 nM |  |  |  |  |  |  |  |  |  |  |  | 
2 | Cc1cc(-c2ccc(C#N)cc2)cc(C)c1Oc1nc(Nc2ccc(C#N)cc2)ncc1C(=O)NC(C)C | 1750 | 64700 nM | 2.2 | 71 nM | 3.9 | 37 nM | 1.9 | 334 nM | 563 nM | 15 | 82 nM | 144 nM | 199 nM | 9
3 | Cc1cc(-c2ccc(C#N)cc2)cc(C)c1Oc1nc(Nc2ccc(C#N)cc2)ncc1C(=O)NC1CC1 | 10600 | 116000 nM | 2.9 | 31 nM | 4.6 | 11 nM | 2.8 | 157 nM | 209 nM | 19 | 32 nM | 51 nM | 111 nM | 14
4 | N#Cc1ccc(Nc2ncc(C(N)=O)c(Oc3ccc(-c4ccc(C#N)cc4)cc3Cl)n2)cc1 | > 2650 | > 270000 nM | 54 | 821 nM | 746 | 102 nM | 8 | 129000 nM | 219000 nM | 2150 | 5530 nM | 76000 nM | 28 nM | 1261
5 | Cc1cc(-c2ccc(C#N)cc2)cc(C)c1Oc1nc(Nc2ccc(C#N)cc2)ncc1C(=O)NCC1CC1 | 2060 | 210000 nM | 4.4 | 248 nM | 8.5 | 102 nM | 2.4 | 1160 nM | 1900 nM | 19 | 445 nM | 872 nM | 294 nM | 11
6 | Cc1cc(-c2ccc(C#N)cc2)cc(C)c1Oc1nc(Nc2ccc(C#N)cc2)ncc1C(=O)NC1CCCC1 | > 1630 | > 236000 nM | 6.6 | 573 nM | 12 | 145 nM | 4 | 3350 nM | 4650 nM | 32 | 960 nM | 1780 nM | 329 nM | 23
7 | CCNC(=O)c1cnc(Nc2ccc(C#N)cc2)nc1Oc1c(C)cc(-c2ccc(C#N)cc2)cc1C | 22500 | 151000 nM | 1.9 | 28 nM | 3.7 | 6 nM | 4.2 | 68 nM | 95 nM | 14 | 13 nM | 25 nM | 135 nM | 10
8 | CNC(=O)c1cnc(Nc2ccc(C#N)cc2)nc1Oc1c(C)cc(-c2ccc(C#N)cc2)cc1C | > 12700 | > 42200 nM | 1.5 | 6 nM | 2.7 | 3 nM | 1.8 | 27 nM | 34 nM | 10 | 5 nM | 9 nM | 56 nM | 8.2
9 | Cc1cc(-c2ccc(C#N)cc2)cc(C)c1Oc1nc(Nc2ccc(C#N)cc2)ncc1C(=O)NCCCO | 5590 | 31400 nM | 1.6 |  | 2.7 | 5 nM | 0.9 | 51 nM | 50 nM | 8.9 | 9 nM | 15 nM | 71 nM | 9.1
10 | Cc1cc(-c2ccc(C#N)cc2)ccc1Oc1nc(Nc2ccc(C#N)cc2)ncc1C(N)=O | > 9000 | > 280000 nM | 3 | 115 nM | 32 | 31 nM | 3.7 | 4340 nM | 7120 nM | 230 | 94 nM | 994 nM | 19 nM | 140
11 | Cc1cc(-c2ccc(C#N)cc2)cc(C)c1Oc1nc(Nc2ccc(C#N)cc2)ncc1C(=O)NC1CCC1 | > 3750 | > 243000 nM | 4.7 | 171 nM | 6.1 | 65 nM | 2.6 | 1020 nM | 1320 nM | 20 | 308 nM | 396 nM | 327 nM | 16
12 | Cc1cc(-c2ccc(C#N)cc2)cc(C)c1Oc1nc(Nc2ccc(C#N)cc2)ncc1C(N)=O | > 2760 | > 43400 nM | 1.6 | 39 nM | 1.4 | 16 nM | 2.4 | 206 nM | 150 nM | 9.4 | 26 nM | 22 nM | 26 nM | 13
13 | COc1cc(-c2ccc(C#N)cc2)ccc1Oc1nc(Nc2ccc(C#N)cc2)ncc1C(N)=O | > 15300 | > 276000 nM | 0.2 |  | 0.3 | 18 nM | 1 | 136 nM | 191 nM | 11 | 4 nM | 6 nM | 28 nM | 7.6
14 | CCCNC(=O)c1cnc(Nc2ccc(C#N)cc2)nc1Oc1c(C)cc(-c2ccc(C#N)cc2)cc1C | 14700 | 86600 nM | 2.4 | 39 nM | 4.2 | 13 nM | 3 | 196 nM | 275 nM | 21 | 31 nM | 55 nM | 191 nM | 15
15 | N#Cc1ccc(Nc2ncc(C(N)=O)c(Oc3c(F)cc(-c4ccc(C#N)cc4)cc3F)n2)cc1 | > 1780 | > 53400 nM | 5.8 | 159 nM | 40 | 30 nM | 5.3 | 10900 nM | 35300 nM | 1178 | 175 nM | 1210 nM | 21 nM | 362
16 | Cc1cc(-c2ccc(C#N)cc2)cc(Cl)c1Oc1nc(Nc2ccc(C#N)cc2)ncc1C(N)=O | > 1270 | > 41600 nM | 0.9 | 5 nM | 1.5 | 33 nM | 0.2 | 35 nM | 94 nM | 2.8 | 31 nM | 49 nM | 66 nM | 1.1
17 | N#Cc1ccc(Nc2ncc(C(N)=O)c(Oc3ccc(-c4ccc(C#N)cc4)cc3F)n2)cc1 | > 1720 | > 278000 nM | 391 | 1610 nM | 1429 | 162 nM | 9.9 | > 278000 nM | > 278000 nM | >1713 | 63400 nM | 231000 nM | 25 nM | >1713
18 | O=C1Nc2ccc(Cl)cc2[C@@](C#CC2CC2)(C(F)(F)F)O1 [EFAVIRENZ] |  | > 6340 nM |  | 6 nM |  | 7 nM |  | 7 nM | 290 nM |  | 102 nM | 44 nM |  | 
19 | Cc1cc(C#N)cc(C)c1Oc1nc(Nc2ccc(C#N)cc2)nc(N)c1Br [ETRAVIRINE] |  | > 4610 nM |  | 7 nM |  | 6 nM |  | 12 nM | 20 nM |  | 3 nM | 7 nM |  | 
20 | Cc1ccnc2c1NC(=O)c1cccnc1N2C1CC1 [NEVIRAPINE] |  | > 15000 nM |  | 210 nM |  |  |  | > 15900 nM | > 15900 nM |  | > 10100 nM | 2100 nM |  | 
21 | Cc1cc(/C=C/C#N)cc(C)c1Nc1ccnc(Nc2ccc(C#N)cc2)n1 [RILPIVIRINE] |  |  |  |  |  |  |  | 4 nM |  |  | 1 nM | 2 nM |  | 
